# Experimental data from PubChem BioAssay (NCI).
#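 All cell lines were grown in 96-well plates and treated with compound for 48 hours. GI50: concentration for 50% inhibition of growth. TGI marks complete inhibition of growth.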
# Experiments:
# Experiment in all cases: growth of human tumour cells (NCI), 48 h
# [1] = test system: K-562 leukemia
# [2] = test system: HCT-15 colon
# [3] = test system: UACC-62 melanoma
# [4] = test system: HT29 colon
# [5] = test system: NCI-H460 lung
# [6] = test system: SF-295 CNS
# [7] = test system: UACC-257 melanoma
# [8] = test system: U251 CNS
# [9] = test system: NCI-H226 lung
SMILES,TGI [1] [µM],TGI [2] [µM],TGI [3] [µM],TGI [4] [µM],TGI [5] [µM],TGI [6] [µM],TGI [7] [µM],TGI [8] [µM],TGI [9] [µM],GI50 [9] [µM],GI50 [6] [µM],GI50 [1] [µM],GI50 [2] [µM],GI50 [3] [µM],GI50 [4] [µM],GI50 [5] [µM],GI50 [7] [µM],GI50 [8] [µM]
CCOc1cc2ccc3c4cc(OC)c(OC)cc4cnc3c2cc1OCC,> 100,> 100,> 100,> 100,> 100,> 100,> 100,> 100,–,–,–,–,–,–,–,–,–,–
COc1ccc(/C=N/N=C(\N)NO)c(Cl)c1O,> 100,> 100,> 100,–,–,22.4,> 100,> 100,38.6,–,–,–,–,–,–,–,–,–
CC(/C=C/C(=O)c1sc(-n2nc(-c3ccccc3)cc2-c2ccccc2)nc1C)=C\c1ccccc1,> 100,57.6,> 100,–,> 100,> 100,> 100,> 100,> 100,> 100,> 100,–,–,–,–,–,–,–
Cc1nnc(N=Nc2c(O)[nH]c3c(Cl)cc(Cl)cc23)n1N,> 100,> 100,> 100,> 100,> 100,> 100,> 100,> 100,> 100,–,–,–,–,–,–,–,–,–
COc1c(C)c2c(c3c1c(=O)c1ccccc1n3C)C=CC(C)(C)O2,66,> 100,33.4,81.5,62,45.8,76.6,53.8,> 100,–,–,–,–,–,–,–,–,–
COCc1c(CO)cnc(C)c1OC1OC(CO)C(O)C(O)C1O (configuration not stated),> 100,> 100,> 100,> 100,> 100,> 100,> 100,> 100,> 100,–,–,–,–,–,–,–,–,–
O=C(NCCO)c1cc2c(cn1)[nH]c1ccccc12,> 100,> 100,> 100,> 100,> 100,> 100,> 100,> 100,> 100,–,–,–,–,–,–,–,–,–
CCOC(=O)C(Cc1c[nH]c2ccc([N+](=O)[O-])cc12)(NC(C)=O)C(=O)OCC,> 1000,> 1000,> 1000,> 1000,> 1000,> 1000,> 1000,> 564,> 1000,> 546,30.5,47.7,> 1000,40.5,> 1000,> 306,> 1000,134
CC1=C(C(=O)Nc2ccccc2)C(c2ccc([N+](=O)[O-])cc2)C(C(=O)Nc2ccccc2)=C(C)N1,63.5,50.9,27.9,41.3,70.3,> 100,53.8,38.6,> 100,–,–,–,–,–,–,–,–,–
c1ccc(N=c2snc3scc(-c4ccccc4)n23)cc1,> 100,> 100,92.1,> 100,–,> 100,> 100,68.3,> 100,–,–,–,–,–,–,–,–,–
C=CCCCn1ccc2ccccc21,> 100,> 100,> 100,> 100,> 100,> 100,> 100,> 100,> 100,–,–,–,–,–,–,–,–,–
O=C1OC(c2ccccc2)=N/C1=C\c1ccc2ccccc2c1,> 100,> 100,> 100,> 100,> 100,–,> 100,> 100,–,–,–,–,–,–,–,–,–,–
O=C(/C=C/c1ccc(O)c(O)c1)OC1C[C@@](O)(C(=O)O)C[C@@H](O)[C@H]1OC(=O)/C=C/c1ccc(O)c(O)c1 (some centres not stated),> 100,> 100,> 100,> 100,> 100,> 100,> 100,> 100,> 100,–,–,–,–,–,–,–,–,–
N#CC(/C(=N\NC(=O)c1ccncc1)C(=O)Nc1ccc([N+](=O)[O-])cc1[N+](=O)[O-])c1nc(-c2ccc(Br)cc2)cs1 (configuration not stated),> 100,> 100,> 100,–,> 100,> 100,> 100,> 100,–,–,–,–,–,–,–,–,–,–
O=C(O)C1=C(C(=O)Nc2ccccc2)C2C=CC1C2 (configuration not stated),> 100,> 100,> 100,> 100,> 100,> 100,> 100,> 100,–,–,–,–,–,–,–,–,–,–
CN(C)c1ncnc2c1Cc1ccccc1C(=O)N2C,> 100,–,> 100,> 100,> 100,> 100,> 100,> 100,> 100,–,–,–,–,–,–,–,–,–
CC1CN(c2ccc(Cl)cc2)CC(C)(C)OC(=O)O1 (configuration not stated),> 100,> 100,> 100,> 100,> 100,> 100,> 100,> 100,> 100,–,–,–,–,–,–,–,–,–

SMILES,TGI [1] [µM],TGI [2] [µM],TGI [3] [µM],TGI [4] [µM],TGI [5] [µM],TGI [6] [µM],TGI [7] [µM],TGI [8] [µM],TGI [9] [µM],GI50 [9] [µM],GI50 [6] [µM],GI50 [1] [µM],GI50 [2] [µM],GI50 [3] [µM],GI50 [4] [µM],GI50 [5] [µM],GI50 [7] [µM],GI50 [8] [µM]
CC(=O)[O-].CC(=O)[O-].O=C(N/N=C/c1cc(Cl)cc(Cl)c1O)c1ccncc1.[Ni+2],> 100,> 100,> 100,> 100,> 100,67.2,96.6,> 100,> 100,–,–,–,–,–,–,–,–,–
Cc1ccc(-n2c3nc(=O)n(C)c(=O)c-3nc3ccccc32)cc1,53.7,23.7,5.52,19.1,17.3,46.5,26.9,39.8,68.7,–,–,–,–,–,–,–,–,–
CC(C)C1C(=O)NC(CO)Cc2c[nH]c3c(C(c4c[nH]c5ccccc45)C(O)CO)ccc(c23)N1C (configuration not stated),> 100,–,> 100,> 100,> 100,> 100,> 100,–,–,–,–,–,–,–,–,–,–,–
Cc1ccc2[nH]c3c(C)c4c(c(C)c3c2c1)CN(C)C=C4,> 38.9,28.2,3.15,11.2,12,3.73,8,1.09,2.13,–,–,–,–,–,–,–,–,–
CC(=O)NC(CCCCN(Cc1ccccc1)C(=O)NCCCl)C(=O)NCc1ccccc1 (configuration not stated),> 100,> 100,> 100,> 100,> 100,> 100,> 100,> 100,> 100,–,–,–,–,–,–,–,–,–
C#Cc1c(C)c(/C=C/C(C)=C/C=C/C(C)=C/C(=O)OC)n(C)c1C,> 100,> 100,> 100,> 100,> 100,> 100,> 100,> 100,–,–,–,–,–,–,–,–,–,–
CCOC(=O)C1(C#N)C(c2ccccc2)CC(O)(c2ccc([N+](=O)[O-])cc2)C(C(=O)c2ccc([N+](=O)[O-])cc2)C1c1ccccc1 (configuration not stated),> 100,> 100,> 100,> 100,> 100,> 100,> 100,> 100,> 100,–,–,–,–,–,–,–,–,–
COc1ccc2c(c1O)C(=O)C(CCC(=O)O)CC2 (configuration not stated),–,> 100,> 100,> 100,> 100,> 100,> 100,> 100,–,–,–,–,–,–,–,–,–,–
CC(C)N(C(=O)C1(C)CC1)C(C)C,> 100,> 100,> 100,> 100,–,> 100,> 100,> 100,> 100,–,–,–,–,–,–,–,–,–
C[N+](C)(C)CC(=O)N/N=C(\CCC(=O)NCCc1ccccc1)CC(=O)c1ccccc1,> 100,> 100,> 100,> 100,> 100,> 100,> 100,> 100,> 100,–,–,–,–,–,–,–,–,–
CCOC(=O)C[C@@H](C)[C@]1(C(=O)OC)CCCC1=O,> 100,> 100,> 100,> 100,> 100,> 100,> 100,> 100,> 100,–,–,–,–,–,–,–,–,–
COc1cc(Br)c(CC2(C#N)c3ccccc3C3C(N2C(=O)c2ccccc2)C3(Cl)Cl)cc1OC (configuration not stated),> 65.5,> 65.5,> 65.5,> 65.5,> 65.5,–,> 65.5,> 65.5,> 65.5,–,–,–,–,–,–,–,–,–
O=C1Nc2cc(Cl)ccc2N=CC1NC(=O)C(c1ccccc1)c1ccccc1Cl (configuration not stated),> 100,> 100,> 100,> 100,> 100,> 100,> 100,> 100,> 100,–,–,–,–,–,–,–,–,–
CCCCCCCCCCCCCCCCOCC(CN(C)CCN(C)C)OCCCCCCCCCCCCCCCC (configuration not stated),> 100,> 100,> 100,> 100,> 100,> 100,> 100,> 100,> 100,–,–,–,–,–,–,–,–,–
Nc1nc(Cl)cc(NCCCCCNc2cc(Cl)nc(N)n2)n1,> 100,> 100,83.9,> 100,> 100,> 100,> 100,> 100,> 100,–,–,–,–,–,–,–,–,–
C=CCCOC(=O)CO[N+](=O)[O-],> 100,> 100,–,> 100,> 100,> 100,> 100,> 100,> 100,–,–,–,–,–,–,–,–,–
COc1cc(OC)c2ssc3c(OC)cc(OC)c4ssc1c2-c43,> 100,> 100,> 100,> 100,> 100,> 100,> 100,> 100,> 100,–,–,–,–,–,–,–,–,–
